One data set deals with Daphnia magna. As to conditions: chronic/long-term; duration: 21 days; reproduction.
A further data set deals with Tagia sp. To be noted: for LC50: acute, duration: 14 days, mortality.
A further data set concerns Bibionidae. As to conditions: chronic/long-term; duration: 28 days.
A further data set concerns Landoltia sp. To be noted: chronic/long-term; duration: 14 days.
Another data set relates to Plant. To be noted: chronic/long-term; duration: 14 days.
For a further data set, the system named is Typhlodromus pyri. As to the kind of experiment: LR50; higher = less toxic. To be noted: not reported; mortality.
Another data set relates to Apis mellifera. As to conditions: acute, mortality.

As usually defined, the NOAEL is the highest dose or exposure tested at which no adverse effect was seen.

As for `CC(Oc1ccc(Oc2cnc3cc(Cl)ccc3n2)cc1)C(=O)O` (stereo not drawn) [Quizalofop], the NOEC was 0.82 mg/L in the data set on Daphnia magna; above 50 mg/kg in the data set on Tagia sp. (chronic/long-term); 46.2 mg/L in the data set on Oncorhynchus mykiss (chronic/long-term, duration: 28 days, growth); 35.7 mg/L in the data set on Bibionidae; 3.2 mg/L in the data set with Landoltia sp.; 0.094 mg/L in the data set with Plant. The LC50 was 948 mg/kg in the data set on Tagia sp. and above 100 mg/L in the data set with Oncorhynchus mykiss (acute, duration: 96 hours, mortality).
Turning to `C[C@@H](Oc1ccc(Oc2cnc3cc(Cl)ccc3n2)cc1)C(=O)OCC1CCCO1` (stereo partly drawn) [Quizalofop P tefuryl], the LR50 in the data set on Typhlodromus pyri was below 100 g/ha. Besides, the LC50 in the data set on Tagia sp. is 16.9 mg/kg; with Colinus virginianus (acute, oral, diet, mortality) it was above 487 mg/kg-day; with Anas platyrhynchos (short-term, oral, feed, mortality), above 259 mg/kg-day. Also, the LD50 is 1010 mg/kg-day in the data set on Rattus norvegicus (acute, oral, mortality); above 100 µg/piece in the data set with Apis mellifera (dermal); 16.8 µg/piece in the data set on Apis mellifera (oral, unspecified); above 2150 mg/kg in the data set with Colinus virginianus (acute, oral, mortality); above 2150 mg/kg in the data set on Anas platyrhynchos (acute, oral, unspecified, mortality). Further, the NOAEL came to 1.3 mg/kg-day with Rattus norvegicus (chronic, duration: 2 years, oral, diet); 10 mg/kg-day in the data set on Rattus norvegicus (reproduction developmental, mortality); 16.9 mg/kg-day in the data set on Rattus norvegicus (reproduction developmental, reproduction); 1.7 mg/kg-day with Rattus norvegicus (subchronic, duration: 90 days, oral, organ weight). The NOEC in the data set on Colinus virginianus (reproduction developmental) was determined as 69.4 mg/kg-day; with Anas platyrhynchos (reproductive) it was 68.7 mg/kg-day.

The record behind these values is EPA's ToxValDB 9.5 (doi:10.2903/j.efsa.2009.205r).
